Measured values as given in article PMC9637864 (Current Research in Toxicology, 2022).
“Also recorded” adds a separate entry of the source. Where two headings read alike, the source gives them in different places.

Tests used:
human FXRα [1] = biological target: T1, human FXRα (Homo sapiens, UniProt Q96RI1); test: cell-based
T1 sequence (Q96RI1 1-486): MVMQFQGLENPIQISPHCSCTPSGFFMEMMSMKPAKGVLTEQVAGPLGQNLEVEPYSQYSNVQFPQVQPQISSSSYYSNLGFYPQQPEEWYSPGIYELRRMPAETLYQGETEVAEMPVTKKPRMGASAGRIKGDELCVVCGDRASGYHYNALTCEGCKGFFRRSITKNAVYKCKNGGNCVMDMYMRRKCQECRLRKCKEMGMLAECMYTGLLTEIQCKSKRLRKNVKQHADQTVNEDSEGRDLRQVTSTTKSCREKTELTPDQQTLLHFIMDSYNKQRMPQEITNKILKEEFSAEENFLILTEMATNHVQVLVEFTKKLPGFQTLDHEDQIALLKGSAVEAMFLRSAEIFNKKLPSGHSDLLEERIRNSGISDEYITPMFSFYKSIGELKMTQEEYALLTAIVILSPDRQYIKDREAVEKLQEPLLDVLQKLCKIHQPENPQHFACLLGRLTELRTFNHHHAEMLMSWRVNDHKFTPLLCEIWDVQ
T1 sequence (P19793 1-462 partner): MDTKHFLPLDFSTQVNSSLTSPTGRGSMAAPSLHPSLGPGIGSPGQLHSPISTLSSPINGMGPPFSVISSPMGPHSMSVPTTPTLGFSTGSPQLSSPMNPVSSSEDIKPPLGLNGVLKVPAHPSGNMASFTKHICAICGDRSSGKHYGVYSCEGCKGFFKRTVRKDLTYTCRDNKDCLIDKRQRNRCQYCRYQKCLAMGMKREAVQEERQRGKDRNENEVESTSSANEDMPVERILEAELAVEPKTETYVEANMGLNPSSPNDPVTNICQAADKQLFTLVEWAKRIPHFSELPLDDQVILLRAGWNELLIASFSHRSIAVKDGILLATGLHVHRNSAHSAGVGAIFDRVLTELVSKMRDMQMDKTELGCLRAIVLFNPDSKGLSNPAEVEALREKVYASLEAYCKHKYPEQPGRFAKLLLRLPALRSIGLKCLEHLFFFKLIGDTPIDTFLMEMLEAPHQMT

medaka FXRα2 [2] = biological target: T2, medaka FXRα2 (Oryzias latipes, UniProt H2M6M7); test: Transient transactivation luciferase assay in HEK293T cells, antagonist mode; assay type: cell-based; details: Antagonists, in the presence of GW4064
T2 sequence (H2M6M7 1-485): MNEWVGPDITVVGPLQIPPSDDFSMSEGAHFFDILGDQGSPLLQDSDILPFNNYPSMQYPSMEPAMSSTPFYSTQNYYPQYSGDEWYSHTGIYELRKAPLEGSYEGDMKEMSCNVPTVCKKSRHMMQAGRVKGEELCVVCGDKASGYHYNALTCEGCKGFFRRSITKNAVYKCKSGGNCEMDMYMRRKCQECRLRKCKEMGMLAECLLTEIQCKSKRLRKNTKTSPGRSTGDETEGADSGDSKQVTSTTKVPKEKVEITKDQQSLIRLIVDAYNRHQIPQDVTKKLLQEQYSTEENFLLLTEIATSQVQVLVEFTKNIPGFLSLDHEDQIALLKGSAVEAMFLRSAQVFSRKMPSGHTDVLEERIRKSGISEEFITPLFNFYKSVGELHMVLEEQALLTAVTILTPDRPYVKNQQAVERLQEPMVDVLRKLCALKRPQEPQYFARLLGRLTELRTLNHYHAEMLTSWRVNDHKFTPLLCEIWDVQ

Human FXRa [3] = details: Antagonists, cited from earlier work; for AC50: Tox21 qHTS, ref US EPA CompTox Chemicals Dashboard; for Tox21 Results Human FXRa Activity Human FXRa: Hsu et al. 2016
human FXRα [4] = biological target: T1, human FXRα; assay type: cell-based
medaka FXRα2 [5] = biological target: T2, medaka FXRα2; test: Transient transactivation luciferase assay in HEK293T cells, agonist mode; assay type: cell-based
Human FXRa [6] = details: Agonists, cited from earlier work
medaka larvae = test: Toxicity to medaka larvae during in vivo exposure; parameters: species or system Medaka (Oryzias latipes); details: between 0.5 and 10 µM
[7] = biological target: NR box of human PGC1α fused to the yeast Gal4 DNA-binding domain (pM-PGC1α) (human) (UniProt Q9UBK2); test: two-hybrid
[8] = biological target: NR box of human PGC1α fused to the yeast Gal4 DNA-binding domain (pM-PGC1α) (human) (UniProt Q9UBK2); test: two-hybrid; remark: listed apart in the source
[9] = read-out: Current Study Human FXRa AC50
[10] = Tox21 qHTS, ref US EPA CompTox Chemicals Dashboard
[11] = Agonists, HEK293T, 24 h, listed as maleic hydrazide
[12] = Agonists, HEK293T, 24 h, listed as prometon

Chain of NR box of human PGC1α fused to the yeast Gal4 DNA-binding domain (pM-PGC1α) (human) (Q9UBK2 whole entry, the tested form may be a part): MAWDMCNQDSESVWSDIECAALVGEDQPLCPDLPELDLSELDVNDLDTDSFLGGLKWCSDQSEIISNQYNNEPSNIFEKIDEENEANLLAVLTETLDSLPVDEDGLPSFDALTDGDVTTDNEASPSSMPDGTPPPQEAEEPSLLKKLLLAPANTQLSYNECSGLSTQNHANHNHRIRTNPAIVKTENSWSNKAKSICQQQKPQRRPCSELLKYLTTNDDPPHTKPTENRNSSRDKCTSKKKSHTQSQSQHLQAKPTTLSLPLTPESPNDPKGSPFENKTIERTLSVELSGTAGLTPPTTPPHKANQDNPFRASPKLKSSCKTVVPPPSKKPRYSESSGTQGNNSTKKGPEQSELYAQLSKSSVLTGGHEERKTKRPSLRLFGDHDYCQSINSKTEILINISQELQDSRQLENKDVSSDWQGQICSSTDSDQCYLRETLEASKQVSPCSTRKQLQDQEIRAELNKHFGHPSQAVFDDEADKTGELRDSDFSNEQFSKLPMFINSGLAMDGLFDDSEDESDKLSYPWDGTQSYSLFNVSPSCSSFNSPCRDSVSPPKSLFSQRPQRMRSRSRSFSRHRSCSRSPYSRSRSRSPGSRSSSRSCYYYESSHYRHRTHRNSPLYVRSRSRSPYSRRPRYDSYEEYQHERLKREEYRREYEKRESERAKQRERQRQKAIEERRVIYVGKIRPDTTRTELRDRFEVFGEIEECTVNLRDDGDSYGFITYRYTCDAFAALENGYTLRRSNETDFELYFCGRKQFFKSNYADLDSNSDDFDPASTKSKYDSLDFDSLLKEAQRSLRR

Cc1c(COC(=O)[C@@H]2[C@H](/C=C(\Cl)C(F)(F)F)C2(C)C)cccc1-c1ccccc1 (racemic) [Bifenthrin]
AC50 (human FXRα [1]): 34.6 µM
Current Study Human FXRa Activity Human FXRa (human FXRα [1]): Active
EC50 (human FXRα [1]): 34.6 µM
Current Study Medaka FXRa2 Activity Medaka FXRa2 (medaka FXRα2 [2]): exhibited antagonist activity; also recorded: Active
AC50 (Human FXRa [3]): 13.3 µM
Tox21 Results Human FXRa Activity Human FXRa (Human FXRa [3]; ref Tox21 dataset): Active
Tox21 Results Human FXRa AC50 (Human FXRa [3]; ref Tox21 dataset): 4.96 µM

CCC(C)(c1ccc(O)cc1)c1ccc(O)cc1 [Bisphenol B]
AC50 (human FXRα [1]): 11.9 µM
Current Study Human FXRa Activity Human FXRa (human FXRα [1]): Active
EC50 (human FXRα [1]): 11.9 µM
Current Study Medaka FXRa2 Activity Medaka FXRa2 (medaka FXRα2 [2]): Active
Current Study Medaka FXRa2 Activity Medaka FXRa2 (medaka FXRα2 [2]; listed as bisphenol B): exhibited antagonist activity
AC50 (Human FXRa [3]): 57.2 µM
Tox21 Results Human FXRa Activity Human FXRa (Human FXRa [3]; ref Tox21 dataset): Active

C[C@@H]1C[C@H]2O[C@@]3(O[C@@H]2C(C)(C)O)[C@H](O)[C@@]2(C)[C@@H]4CC[C@H]5C(C)(C)[C@@H](O[C@@H]6OC[C@@H](O)[C@H](O)[C@H]6O)CC[C@@]56C[C@@]46CC[C@]2(C)[C@@H]13 [Cimicifugoside]
Current Study Human FXRa Activity Human FXRa (human FXRα [4]): Active
AC50 (human FXRα [4]; [9]): 9.8 µM
Current Study Medaka FXRa2 Activity Medaka FXRa2 (medaka FXRα2 [5]; Agonists, HEK293T, 24 h): Active
AC50 (medaka FXRα2 [5]; read-out: Current Study Medaka FXRa2 AC50, Agonists, HEK293T, 24 h): > 100 µM
AC50 (Human FXRa [6]; [10]): 5 µM
Activity Decision (Human FXRa [6]; [10]): Active
Tox21 Results Human FXRa AC50 (Human FXRa [6]; ref Tox21 dataset): 5.52 µM
Tox21 Results Human FXRa Activity Human FXRa (Human FXRa [6]; ref Tox21 dataset): Active

COc1cc2c(c(OC)c1OC)-c1ccc(OC)c(=O)cc1[C@@H](NC(C)=O)CC2 [Colchicine, reference compound]
Current Study Human FXRa Activity Human FXRa (human FXRα [1]): Inactive
Current Study Medaka FXRa2 Activity Medaka FXRa2 (medaka FXRα2 [2]): Inactive
Tox21 Results Human FXRa Activity Human FXRa (Human FXRa [3]; ref Tox21 dataset): Inactive

CC(C)c1onc(-c2c(Cl)cccc2Cl)c1COc1ccc(C=Cc2cccc(C(=O)O)c2)c(Cl)c1 [GW4064, 3-(2,6-Dichlorophenyl)-4-(3′-carboxy-2-chlorostilben-4-yl) oxymethyl-5-isopropylisoxazole, reference compound]
EC50 (medaka FXRα2 [5]): 0.269 µM

O=c1ccc(=O)[nH][nH]1 [Maleic hydrazide]
Current Study Human FXRa Activity Human FXRa (human FXRα [4]; Agonists, HEK293T, 24 h): Inactive
Current Study Human FXRa Activity Human FXRa (human FXRα [4]; [11]): confirmed inactive
Current Study Medaka FXRa2 Activity Medaka FXRa2 (medaka FXRα2 [5]; Agonists, HEK293T, 24 h): Inactive
Current Study Medaka FXRa2 Activity Medaka FXRa2 (medaka FXRα2 [5]; [11]): confirmed as inactive
cytotoxicity / toxicity to medaka larvae in agonist exposures (medaka larvae): significant cytotoxicity
Activity Decision (Human FXRa [6]; [10]): Inactive
Tox21 Results Human FXRa Activity Human FXRa (Human FXRa [6]; ref Tox21 dataset): Inactive

CO/N=C1\C[C@]2(C[C@@H]3C[C@@H](C/C=C(\C)C[C@@H](C)/C=C/C=C4\CO[C@@H]5[C@H](O)C(C)=C[C@@H](C(=O)O3)[C@]45O)O2)O[C@H](/C(C)=C/C(C)C)[C@H]1C [Moxidectin, reference compound]
AC50 (human FXRα [1]): 12.5 µM
Current Study Human FXRa Activity Human FXRa (human FXRα [1]): Active
EC50 (human FXRα [1]): 12.5 µM
Current Study Medaka FXRa2 Activity Medaka FXRa2 (medaka FXRα2 [2]): Active
Tox21 Results Human FXRa Activity Human FXRa (Human FXRa [3]; ref Tox21 dataset): Active/Inactive

O=C1OC(c2ccc(O)cc2)(c2ccc(O)cc2)c2ccccc21 [Phenolphthalein]
cytotoxicity / toxicity to medaka larvae in agonist exposures (medaka larvae): significant cytotoxicity; also recorded: toxic to medaka larvae

COc1nc(NC(C)C)nc(NC(C)C)n1 [Prometon]
Current Study Human FXRa Activity Human FXRa (human FXRα [4]; Agonists, HEK293T, 24 h): Inactive
Current Study Human FXRa Activity Human FXRa (human FXRα [4]; [12]): confirmed inactive
Current Study Medaka FXRa2 Activity Medaka FXRa2 (medaka FXRα2 [5]; Agonists, HEK293T, 24 h): Inactive
Current Study Medaka FXRa2 Activity Medaka FXRa2 (medaka FXRα2 [5]; [12]): confirmed as inactive
Activity Decision (Human FXRa [6]; [10]): Inactive
Tox21 Results Human FXRa Activity Human FXRa (Human FXRa [6]; ref Tox21 dataset): Inactive

CCCCCCCC(=O)OCC(COC(=O)CCCCCCC)OC(=O)CCCCCCC [Tricaprylin]
Current Study Human FXRa Activity Human FXRa (human FXRα [1]): Inactive
Current Study Medaka FXRa2 Activity Medaka FXRa2 (medaka FXRα2 [2]): Active
Current Study Medaka FXRa2 Activity Medaka FXRa2 (medaka FXRα2 [2]; listed as tricaprylin): exhibited antagonist activity
Tox21 Results Human FXRa Activity Human FXRa (Human FXRa [3]; ref Tox21 dataset): Inactive

c1ccc(P(c2ccccc2)c2ccccc2)cc1 [Triphenylphosphine]
cytotoxicity / toxicity to medaka larvae in agonist exposures (medaka larvae): significant cytotoxicity

Ivermectin [reference compound]
Current Study Human FXRa Activity Human FXRa (human FXRα [1]): Active
AC50 (human FXRα [1]; [9]): 2.35 µM
Current Study Medaka FXRa2 Activity Medaka FXRa2 (medaka FXRα2 [2]): Active
AC50 (medaka FXRα2 [2]; read-out: Current Study Medaka FXRa2 AC50): 11.2 µM
Tox21 Results Human FXRa Activity Human FXRa (Human FXRa [3]; ref Tox21 dataset): Active

VP16 activation domain fused to medaka FXRα2 (pVP16-mFXRα2) (receptor)
recruitment with moxidectin, percent (reference as for human FXRα: GW4064 alone) [7]: 126%

B1: VP16 activation domain fused to full-length human FXRα (pVP16-hFXRα) (receptor)
chain: T1 sequence (Q96RI1 1-486)
recruitment with moxidectin and GW4064, percent of that with GW4064 alone [8]: 132%
